Experiment: Human HepG2 cell viability assay in 384 well format
Format: toxicity, cell-based
Parameters: dose 125 nL, time 70.5 hour; cytotoxicity at 70.5 h: concentration not given beside the values
Details: HepG2 cells, read-out: Inhibition

SMILES	cytotoxicity at 70.5 h [%]
Cc1nn(C)c(Cl)c1C1CCCN1Cc1nnc(C2CC2)n1C (stereo not drawn)	-0.0718
N[C@H]1CN(C(=O)CCCc2ccc(F)cc2)C[C@@H]1C1CC1	-6.92
Cc1cccc(CS(=O)(=O)CC(O)Cn2cccn2)c1 (stereo not drawn)	-4.24
CC(NCC1CCN(CCO)CC1)c1ccc(C(F)(F)F)cc1 (stereo not drawn)	14
Cc1cc(C)c(Cn2cncn2)cc1CN1CC[C@H](CO)[C@@H](O)C1	6.21
COCc1cc(N(C)Cc2ccccn2)nc(C(C)(C)C)n1	-10.1
CNC(=O)C1CN(c2ccnc(C)n2)CCN1Cc1ccccc1 (stereo not drawn)	-3.79
COCCN1CCn2cc(CN(C)Cc3ccco3)nc2C1	-7.59
Cc1noc(COCC(=O)N2CCCC(c3nccs3)C2)n1 (stereo not drawn)	-6.88
CCOCCCNC(=O)CCSCc1csc(C)n1	-2.1
CCn1nc(C)c2c1cnn2CCNS(C)(=O)=O	-6.31
Cn1ccnc1C(=O)N1CCC(Cn2cc(-c3ccsc3)nn2)CC1	-8.29
CN(C)C(=O)N1CCc2c(CNc3ncccn3)cncc2C1	-2.83
CN(CC1CCCO1)C1CCN(CCc2ccccn2)CC1 (stereo not drawn)	-6.95
CC(C)[C@@H]1CN(C2CCN(Cc3ccccc3)CC2)C[C@H]1NS(C)(=O)=O	0.292
CN1CC(C(=O)NCCc2ccn(-c3ccc(F)cc3)n2)CC1=O (stereo not drawn)	-9.34
Cn1cccc1-c1cc(C(=O)N2CCCC2c2cccnc2)[nH]n1 (stereo not drawn)	-4.46
Cc1nc(-c2cccnc2)ncc1C(=O)N1CCCCC(N)C1 (stereo not drawn)	-23.9
O=C(NCCc1cc(N2CCOCC2)nc(NC2CC2)n1)C1CC1	-14
Cc1ncc2c(n1)CN(CC(=O)Nc1c(C)nn(C)c1C)CC2	-1.17
CC(=O)N1CCC2(CN(CC3CCCC3)C2)C1	-3.32
Cc1ccnc(C2CN(Cc3cnn(-c4ccccc4C(=O)O)c3)C2)n1	-6.57
CCOc1ccc(CNCCCn2ccnc2)cc1Cl	0.65

SMILES	cytotoxicity at 70.5 h [%]
CN(C)S(=O)(=O)N1CCN(c2cc(-n3cccc3)ncn2)CC1	-6
CCNS(=O)(=O)c1ccc(C)c(C(=O)N(CCC#N)Cc2ccco2)c1	19.1
COC(=O)c1ccc(C(=O)NCc2ccco2)nc1	-8.73
CC(C)(C)OC(=O)N1CCN(c2cccnc2)CC1C(=O)O (stereo not drawn)	-0.358
Cc1ccc2nc(CN(C)Cc3ccc(C)o3)cc(=O)n2c1	-15
COCC(=O)N1CC[C@]2(O)CCN(Cc3ccsc3)C[C@@H]2C1	-7.01
Cc1ccsc1CN1CC[C@H]2O[C@H](C(=O)N3CCCO3)CC[C@H]21	-8.24
C[C@]1(O)CCN(Cc2nccs2)C[C@@H]1Oc1cccc(F)c1	-3.49
Cc1cccc(CNC(=O)CNc2cc(CO)ccc2Cl)c1	-3.8
CO[C@H]1C[C@@H]2CN(C(=O)c3n[nH]c4c3CCCC4)C[C@@H]2C1	11
CNC(=O)COC1COC2(CCN(c3ccc(C#N)cc3)CC2)C1 (stereo not drawn)	-5.98
c1cc(CN2C[C@@H]3OCCN(CC4CCCO4)[C@@H]3C2)ccn1 (stereo partly drawn)	8.75
O=C(C1SCCc2sccc21)N1CCN(CC(F)F)CC1 (stereo not drawn)	-5.33
Cc1ccc(O[C@@H]2C[C@H]3CN(C(=O)c4cnccn4)CCN3C2)cc1	-4.43
CC(=O)N1CC(=O)N(c2ccccc2)CC12CCN(Cc1cccs1)C2 (stereo not drawn)	-5.96
CC(c1ccon1)N(C)C(=O)C1CCN(C(=O)C2CC2)CC1 (stereo not drawn)	-4.84
O=C1NCCCCC1NC(=O)N1CCCc2cc(F)ccc21 (stereo not drawn)	-4.74
CCOCC1CN(C(=O)c2cccn2C)Cc2cnn(CC3CC3)c21 (stereo not drawn)	0.525
Cc1c(Cl)ccc2ccc(NC(CO)CO)nc12	6.75
COc1ccc(-c2nnc(SC(C)C(=O)NC3CCCC3)[nH]2)c(OC)c1 (stereo not drawn)	42.2
Fc1ccccc1OCCN1CCCCC1Cn1cncn1 (stereo not drawn)	2.55
O=C1NC[C@H]2CN(Cc3ccnc4ccccc34)CCN12	-6.05
CCc1cnc(N2CCC3(CC2)CN(c2cccnc2)C(=O)CO3)nc1	23.8

SMILES	cytotoxicity at 70.5 h [%]
Cc1nc(CNC2CC(=O)N(CCc3cccc(Cl)c3)C2)c[nH]1 (stereo not drawn)	-5.42
Cc1cnn(CC2CN(CCCS(C)(=O)=O)CCO2)c1 (stereo not drawn)	-0.801
CC(C)N(C)CCNC(=O)N(C)CC1CCOCC1	-11.2
N#CC1COCCN1C(=O)c1cccc2cc[nH]c12 (stereo not drawn)	-13.5
Cc1cc(NC(=O)N2CCCC2C(=O)NC2CC2)c2ncccc2c1 (stereo not drawn)	-98
Nc1cnn(CC(=O)N2CCCCC2)c1	3.95
Cc1nc2ccc(C(=O)N3C[C@@H](O)[C@H](N4CCN(C)CC4)C3)cc2[nH]1	-4.75
Cc1cc(=O)[nH]c(SC(C)C(=O)N2CCC(c3ncc[nH]3)CC2)n1 (stereo not drawn)	0.989
CNC(=O)c1cc(OC)c(OC)cc1N(C)S(C)(=O)=O	-7.84
CN1C(=O)C2(CCN(CC3CC3)CC2)c2ccccc21	-2.61
CC(C)Cc1cc(C(=O)N2CCCN(c3ncccn3)CC2)[nH]n1	-1.63
OCCOc1nc(-c2ccccc2Cl)no1	-1.34
CCOCCC(=O)NCC1COc2c(cccc2OC)C1 (stereo not drawn)	-4.38
O=C(NCCO)Nc1ccc(Cl)cc1-n1cccc1	0.77
CCCn1ncc(C(=O)NC2CCN(CC3CCCO3)CC2)c1C (stereo not drawn)	25.6
O=C(CCc1cc2n(n1)CCN(Cc1ncc[nH]1)C2)N1CCCC1	2.55
Cc1nn(-c2ccccc2)cc1C(=O)N1CCCC(n2cccn2)C1 (stereo not drawn)	-1.21
COc1ccc(CN2C[C@@H]3COC[C@]3(CN(C)C)C2)cc1	-12.6
CN1CCC(c2cccc(CCC(=O)NCC(N)=O)n2)CC1	-5.22
c1csc(C(CNCc2cccc3c2OCO3)N2CCOCC2)c1 (stereo not drawn)	-13.2
O=C(CCCNC(=O)C1CC1)Nc1cnn(-c2ccccc2Cl)c1	-1.38
O=C(NCc1ccc(Cl)cc1)[C@@H]1Cc2[nH]cnc2CN1CC1CC1	-6.64
Cc1n[nH]c(C)c1CN(C)C(C(=O)O)c1c(F)cccc1OC(C)C (stereo not drawn)	-4.07

SMILES	cytotoxicity at 70.5 h [%]
CC(=O)N1CCC2(CC1)CN(C)CC[C@H]2C(F)(F)F	-4.42
Cc1ncc(CN2CCC3(CC2)CC(=O)N(C)C3)cn1	4.13
Cc1nn(C)c(N(C)C)c1CNCCCN(C)S(C)(=O)=O	-6.18
CC(c1nc(C(C)(C)C)no1)S(=O)(=O)CC(=O)N(C)C (stereo not drawn)	-6.15
Cc1ccc(-c2ccc(C(=O)NCCC(=O)N(C)C)c(F)c2)cc1	-6.22
COCC(=O)N1CCC2(C1)c1ccccc1S(=O)(=O)N2CC1CC1 (stereo not drawn)	-8.07
O=C1CC(N(C(=O)c2csc(-c3ccccc3)n2)C2CC2)C(=O)N1 (stereo not drawn)	10.8
c1csc(-c2nc(CN3CCCCC3Cn3cncn3)cs2)c1 (stereo not drawn)	-14.9
CCC(=O)N1CCOC(c2cc(Nc3nncs3)cc(C)n2)C1 (stereo not drawn)	-5.24
CN(C)C[C@]12COC[C@H]1CN(Cc1ccc3ccccc3n1)C2	-11.7
CC(C)CS(=O)(=O)CCNC(=O)Nc1cccc2ncccc12	19.9
CC1c2ncc(Cn3cccn3)n2CCN1c1ncccn1 (stereo not drawn)	-8.84
CCn1cc(NS(=O)(=O)c2ccc(Br)s2)c(C(N)=O)n1	21.8
Cn1nccc1CN1CCOC(c2ccc(-c3cncnc3)cn2)C1 (stereo not drawn)	-6.28
Cc1cnccc1CN1C[C@@H](O)[C@H](Oc2ccccc2)C1	-5.34
COc1ccc(S(=O)(=O)Nc2cccnc2-n2cncn2)cc1C	0.714
CC1(C)Cc2c(cnn2-c2ccccc2)C(NC2CCSCC2)C1 (stereo not drawn)	-5.66
O=C1COC2(CCN(Cc3cccs3)CC2)CN1c1cccnc1	5.94
Cc1cccc(OCC(=O)N(C)C2CCN(CC3CCOC3)CC2)c1 (stereo not drawn)	-9.11
O=C(CC1CC1)N1CC[C@H]2OCC[C@@]2(COc2ncccc2F)C1	-21.5
NCc1cnn(-c2ccccc2C(=O)NCc2ccncc2)c1	-8.5
O=C(O)CC1COCCN1CCCc1ccccc1 (stereo not drawn)	-11.2
COc1ccc(NC(C)C(=O)N2CCCC2)cn1 (stereo not drawn)	-1.03

SMILES	cytotoxicity at 70.5 h [%]
O=S(=O)(NC1CCCOC1)c1ccc(C(F)(F)F)nc1 (stereo not drawn)	-1.78
COCCN1CCc2cc(C(=O)N(C)C)c(NCC3CC3)nc2CC1	-4.26
O=C(c1ccccn1)N1CCN(c2ccc(-n3cccc3)nn2)CC1	-4.16
COc1ccc(CCNC(=O)C(C)Nc2ccc(C)c(C)c2)cc1 (stereo not drawn)	21
O=C(COCCc1ccccc1)N1CCCC(n2cccn2)C1 (stereo not drawn)	-6.79
Cc1nnc([C@H]2C[C@@H]3CCN(C(=O)C4CCOCC4)C[C@H]3O2)[nH]1	-9.85
CNC(=O)C(C)CN(C)C(=O)Nc1cc(-n2cccc2)ccc1F (stereo not drawn)	-3.24
Cc1nc(-c2nnc[nH]2)sc1C(=O)N1CCCC1Cn1cccn1 (stereo not drawn)	-3.3
CC(C)COC(=O)N1CCCN(C(C)c2nnc(CC(C)C)o2)CC1 (stereo not drawn)	-3.09
Cc1cccc(CN2Cc3[nH]nc(COCc4nccs4)c3C2)n1	-0.324
Fc1cnc(N2CCN(Cc3ccc(-c4cc[nH]n4)o3)CC2)nc1	-3.42
COc1ccsc1C(=O)N1CCCN(Cc2cscn2)CC1	-5.36
CC(C)(NCc1ccc(C#N)cc1)c1ccc2c(c1)OCO2	12.3
Cn1ccc(C2CCCCN2C(=O)c2cccc(-n3cccn3)c2)n1 (stereo not drawn)	10.7
CC(=O)N1CCCC1c1csc(Nc2cnccn2)n1 (stereo not drawn)	-4.91
COc1ccc(C(=O)C2CCCN(Cc3ccccc3O)C2)c(OC)c1 (stereo not drawn)	35.7
Cc1nnc(C(C)N2CCCN(Cc3ccc(C#N)cc3)CC2)o1 (stereo not drawn)	-2.73
CCCN1CCN(CC(O)c2ccc(OC(F)(F)F)cc2)CC1 (stereo not drawn)	-0.084
NC(=O)CC1CCN(C(=O)c2cnc(-c3ccccc3F)s2)CC1	-22.8
CN1CCN(C(=O)c2ccc(Cn3cc(Br)cn3)cc2)CC1	-5.22
O=C([C@H]1C[C@H]2OCC[C@H]2N(C(=O)c2ccncc2)C1)N1CCCC1	-5.12
